The values that follow come from paper PMC7997269, “Oral Proteasomal Inhibitors Ixazomib, Oprozomib, and Delanzomib Upregulate the Function of Organic Anion Transporter 3 (OAT3): Implications in OAT3-Mediated Drug-Drug Interactions” (Pharmaceutics, 2021).

Data set [1] has as its system T1, 20S proteasome.
T1 construct: gene PSMB5; endogenous 20S proteasome of hOAT3-expressing COS-7 cells; activity read in lysate of drug-treated cells with SUC-LLVY-AMC (chymotrypsin-like, beta5); complex of 28 subunits
In words: […] activity with SUC-LLVY-AMC in lysate after […] h treatment of intact COS-7 cells. As to conditions: 37 °C; reversible; chymotrypsin-like activity. Type of data set: cell-based.

The target of data set [2] is T2, OAT3 (hOAT3) (Homo sapiens, UniProt Q8TCC7).
T2 construct: gene SLC22A8; full-length human OAT3 with fused Myc tag, stably expressed in COS-7 cells; ~80 kDa on blot
T2 sequence (Q8TCC7 1-542): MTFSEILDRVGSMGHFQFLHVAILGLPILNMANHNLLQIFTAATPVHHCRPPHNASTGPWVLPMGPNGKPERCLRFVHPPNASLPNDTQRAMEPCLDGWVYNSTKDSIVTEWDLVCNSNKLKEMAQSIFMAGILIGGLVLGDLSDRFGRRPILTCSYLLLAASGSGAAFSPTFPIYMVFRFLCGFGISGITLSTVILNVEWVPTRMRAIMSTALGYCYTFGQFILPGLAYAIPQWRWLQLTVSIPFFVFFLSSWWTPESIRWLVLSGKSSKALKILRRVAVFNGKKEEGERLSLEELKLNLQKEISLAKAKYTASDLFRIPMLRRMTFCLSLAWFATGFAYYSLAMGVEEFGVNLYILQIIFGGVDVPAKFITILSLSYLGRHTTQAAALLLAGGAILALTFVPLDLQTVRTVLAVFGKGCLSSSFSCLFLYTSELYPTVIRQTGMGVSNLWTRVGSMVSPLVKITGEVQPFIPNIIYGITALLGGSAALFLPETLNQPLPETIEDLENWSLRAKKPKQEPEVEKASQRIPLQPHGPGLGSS
Nature of the data set: cis-inhibition of [3H]estrone sulfate uptake in hOAT3-expressing COS-7 cells, […] min. Type of data set: cell-based.

Substrate in data set [3]: C[C@]12CC[C@@H]3c4ccc(OS(=O)(=O)O)cc4CC[C@H]3[C@@H]1CCC2=O
In words: cells, lysate or membranes. In kind it is cell-based, Homo sapiens. The following applies: untreated cells; PBS/Ca2+/Mg2+; 0.3-10 µM; labelled compound (3H); parental-cell uptake subtracted.

Consider `CC(C)C[C@H](NC(=O)[C@@H](NC(=O)c1cccc(-c2ccccc2)n1)[C@@H](C)O)B(O)O` [delanzomib], for which the “% inhibition at 30 nM” value in data set [1] was 61 (95% CI: 57 to 65).
For the molecule `CC(C)C[C@H](NC(=O)CNC(=O)c1cc(Cl)ccc1Cl)B(O)O` [ixazomib], the “% inhibition at 30 nM” value in data set [1] is given as 50 (95% CI: 46 to 54).
The term inhibition denotes the share of the control response that was lost under treatment. Read a high inhibition as strong suppression. `CCCN(CCC)S(=O)(=O)c1ccc(C(=O)O)cc1` [probenecid] displayed an inhibition at 5 µM in data set [2] of 40%.

B1: OAT3 (hOAT3) (Homo sapiens) (protein)
chain: T2 sequence (Q8TCC7 1-542)
notes: full-length human OAT3 with fused Myc tag, stably expressed in COS-7 cells; ~80 kDa on blot
The Km is the substrate concentration at which the rate is half of its maximum. Regarding B1, in data set [3], the Km came to 4.2 ± 0.3 µM.
